Results from patent US11866720B2, “Transgenic or non-transgenic plants with mutated protoporphyrinogen oxidase having increased tolerance to herbicides” (priority 2013, dated 2024).
Residue numbers refer to the chain shown, from its start.

What was measured:
Assay in all cases: biochemical
[1] = target: T1, recombinant wildtype and mutated PPO (Amaranthus PPO2: PPX2L_WC SEQ ID NO 2, PPX2L_AC SEQ ID NO 4, dG210 SEQ ID NO 6 & 8) (Amaranthus tuberculatus, UniProt Q0NZW9, D133A/F420M/R128T); conditions: IC50 (M)
T1 sequence (Q0NZW9 1-534 R128T/D133A/F420M): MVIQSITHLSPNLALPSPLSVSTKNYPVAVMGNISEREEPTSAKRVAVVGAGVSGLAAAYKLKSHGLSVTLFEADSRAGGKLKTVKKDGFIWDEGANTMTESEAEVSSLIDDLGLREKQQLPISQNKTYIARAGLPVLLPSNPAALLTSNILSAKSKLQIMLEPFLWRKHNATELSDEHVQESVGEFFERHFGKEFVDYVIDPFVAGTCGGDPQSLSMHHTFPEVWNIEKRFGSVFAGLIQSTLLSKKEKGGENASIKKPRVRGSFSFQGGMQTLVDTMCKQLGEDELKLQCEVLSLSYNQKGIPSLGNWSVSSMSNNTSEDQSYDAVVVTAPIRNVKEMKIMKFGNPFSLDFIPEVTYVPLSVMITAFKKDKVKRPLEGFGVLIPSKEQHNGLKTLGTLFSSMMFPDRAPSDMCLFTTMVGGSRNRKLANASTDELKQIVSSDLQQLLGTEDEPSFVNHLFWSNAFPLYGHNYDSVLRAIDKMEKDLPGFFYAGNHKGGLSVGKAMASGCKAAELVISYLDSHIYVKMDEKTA

[2] = target: T2, recombinant wildtype and mutated PPO (Amaranthus PPO2: PPX2L_WC SEQ ID NO 2, PPX2L_AC SEQ ID NO 4, dG210 SEQ ID NO 6 & 8) (Amaranthus tuberculatus, UniProt Q0NZW9, D133A/F420M/R128Q); conditions: IC50 (M)
T2 sequence (Q0NZW9 1-534 R128Q/D133A/F420M): T1 sequence (Q0NZW9 1-534 R128T/D133A/F420M) with T128Q

[3] = target: recombinant wildtype and mutated PPO (Amaranthus PPO2: PPX2L_WC SEQ ID NO 2, PPX2L_AC SEQ ID NO 4, dG210 SEQ ID NO 6 & 8) (Amaranthus tuberculatus, UniProt Q0NZW9, D133A/F420M/R128G); conditions: IC50 (M)
[4] = target: T3, recombinant wildtype and mutated PPO (Amaranthus PPO2: PPX2L_WC SEQ ID NO 2, PPX2L_AC SEQ ID NO 4, dG210 SEQ ID NO 6 & 8) (Amaranthus tuberculatus, UniProt Q0NZW9, D133A/F420M/R128F); conditions: IC50 (M)
T3 sequence (Q0NZW9 1-534 R128F/D133A/F420M): T1 sequence (Q0NZW9 1-534 R128T/D133A/F420M) with T128F

[5] = target: T4, recombinant wildtype and mutated PPO (Amaranthus PPO2: PPX2L_WC SEQ ID NO 2, PPX2L_AC SEQ ID NO 4, dG210 SEQ ID NO 6 & 8) (Amaranthus tuberculatus, UniProt Q0NZW9, R128A/F420L, form not given)
T4 sequence (Q0NZW9 1-534 R128A/F420L): T1 sequence (Q0NZW9 1-534 R128T/D133A/F420M) with T128A, A133D, M420L

Chain of recombinant wildtype and mutated PPO (Amaranthus PPO2: PPX2L_WC SEQ ID NO 2, PPX2L_AC SEQ ID NO 4, dG210 SEQ ID NO 6 & 8) (Amaranthus tuberculatus, UniProt Q0NZW9, D133A/F420M/R128G) (Q0NZW9 1-534 R128G/D133A/F420M): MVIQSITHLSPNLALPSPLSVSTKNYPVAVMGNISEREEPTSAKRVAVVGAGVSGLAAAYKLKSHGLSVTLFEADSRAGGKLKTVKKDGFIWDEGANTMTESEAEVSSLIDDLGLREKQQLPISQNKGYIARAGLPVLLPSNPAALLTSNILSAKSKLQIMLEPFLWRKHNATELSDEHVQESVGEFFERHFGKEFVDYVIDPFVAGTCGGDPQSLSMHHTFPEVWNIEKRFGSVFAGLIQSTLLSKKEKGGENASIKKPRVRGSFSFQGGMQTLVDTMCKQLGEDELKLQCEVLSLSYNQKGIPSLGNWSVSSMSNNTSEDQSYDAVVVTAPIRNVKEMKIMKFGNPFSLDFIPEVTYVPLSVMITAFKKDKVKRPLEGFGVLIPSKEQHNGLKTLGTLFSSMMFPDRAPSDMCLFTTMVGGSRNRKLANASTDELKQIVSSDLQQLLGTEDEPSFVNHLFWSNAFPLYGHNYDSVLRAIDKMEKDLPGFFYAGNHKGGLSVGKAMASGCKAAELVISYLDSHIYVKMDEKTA

Row | SMILES | IC50 [1] | IC50 [2] | IC50 [3] | IC50 [4] | IC50 [5]
1 | C#CCN1C(=O)C(F)(F)Oc2cc(F)c(-n3c(=O)n(C)c(=S)n(C)c3=O)cc21 | 4.33e-08 M | 1.07e-08 M | 1.26e-08 M | 1.21e-07 M | 
2 | C#CCN1C(=O)C(F)(F)Oc2cc(F)c(-n3c(=O)cc(C(F)(F)F)n(C)c3=O)cc21 |  |  |  |  | 0.0162 µM
3 | C#CCN1C(=O)C(F)(F)Oc2cc(F)c(N3C(=O)C4=C(CCCC4)C3=O)cc21 |  |  |  |  | 11.4 µM
4 | COC(Oc1ccccc1Oc1cc(-n2c(=O)cc(C(F)(F)F)n(C)c2=O)c(F)cc1Cl)C(=O)OC1CCCCC1 (stereo not shown) | 1.17e-07 M | 1.72e-07 M | 5.14e-08 M | 6.26e-08 M | 0.0937 µM
5 | COC(=O)C(OC)Oc1ccccc1Oc1cc(-n2c(=O)cc(C(F)(F)F)n(C)c2=O)c(F)cc1Cl (stereo not shown) | 2.79e-08 M | 7.14e-08 M | 4.76e-08 M | 2.81e-09 M | 0.047 µM
